According to PubChem BioAssay (NCI):
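Following 48 hours of exposure in 96-well plates, responses at five concentrations were used to interpolate endpoints linearly. TGI: total growth inhibition.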

Experiments:
Assay in all cases: NCI tumour cell line growth inhibition, 48 h
KM12 colon = test system: KM12 colon
SK-OV-3 ovarian = test system: SK-OV-3 ovarian
HS 578T breast = test system: HS 578T breast
MDA-MB-435 = test system: MDA-MB-435
RPMI-8226 leukemia = test system: RPMI-8226 leukemia
MDA-MB-231 breast = test system: MDA-MB-231 breast
SW-620 colon = test system: SW-620 colon
NCI-H226 lung = test system: NCI-H226 lung
UACC-257 melanoma = test system: UACC-257 melanoma
OVCAR-3 ovarian = test system: OVCAR-3 ovarian
U251 CNS = test system: U251 CNS
A549 NSCLC = test system: A549 NSCLC
HT29 colon = test system: HT29 colon
BT-549 breast = test system: BT-549 breast

| SMILES | TGI (KM12 colon) [µM] | TGI (SK-OV-3 ovarian) [µM] | TGI (HS 578T breast) [µM] | TGI (MDA-MB-435) [µM] | TGI (RPMI-8226 leukemia) [µM] | TGI (MDA-MB-231 breast) [µM] | TGI (SW-620 colon) [µM] | TGI (NCI-H226 lung) [µM] | TGI (UACC-257 melanoma) [µM] | TGI (OVCAR-3 ovarian) [µM] | TGI (U251 CNS) [µM] | TGI (A549 NSCLC) [µM] | TGI (HT29 colon) [µM] | TGI (BT-549 breast) [µM] |
| --- | --- | --- | --- | --- | --- | --- | --- | --- | --- | --- | --- | --- | --- | --- |
| OC(CN(CCCl)CCCl)C(O)C(O)C(O)CN(CCCl)CCCl (stereo not given) | > 100 | > 100 | > 100 | > 100 | > 100 | > 100 | > 100 | > 100 | > 100 | > 100 | > 100 | > 100 | > 100 | > 100 |
| O=C1CCc2ccc(O)c(c2)Oc2ccc(cc2)C(Sc2ccccc2)CCO1 (stereo not given) | 29.5 | > 100 | 36.2 | 41.9 | 36.4 | 19.2 | 34.9 | 30.2 | 32.6 | 29.6 | 33 | 59 | 30.1 | 28.7 |
| COc1ccccc1/C=C/C1=NN(c2cccc(S(=O)(=O)O)c2)C2(C1)C(Cl)C(=O)N2c1nc2ccccc2s1 (stereo not given) | > 100 | > 100 | > 100 | > 100 | 44 | > 100 | > 100 | > 100 | > 100 | > 100 | > 100 | > 100 | > 100 | > 100 |
| CCCSc1ccc2[nH]c(N3C(=O)/C(=C/c4ccc(SC)cc4)N=C3c3ccccc3)cc2c1 | 32.7 | > 50 | > 50 | 21.2 | – | > 50 | > 50 | > 50 | > 50 | > 50 | > 50 | > 50 | > 50 | > 50 |
| Cc1ccc2nc(C(C)C)c(=O)[nH]c2c1 | > 100 | > 100 | > 100 | > 100 | > 100 | > 100 | > 100 | > 100 | > 100 | 32.8 | > 100 | > 100 | > 100 | > 100 |
| C=CCOC(=O)C1=C(C)NC2=N[C@H](CCCCCCCCC)C[C@@H]3CCC1N23 (stereo not given in full) | > 100 | 75.2 | 54.4 | 44.5 | > 100 | 41.7 | > 100 | 36.6 | 37.1 | 37.5 | 40.5 | > 100 | 72.2 | 37.6 |
| CC(C)=CCC[C@@H](C)C1=C(O)C(Nc2ccccc2Cl)=C(C)C(=O)C1=O | 30 | > 75 | > 69.9 | > 75 | > 55.8 | > 70.8 | > 75 | 29.3 | > 75 | > 75 | > 75 | > 59.7 | 26.3 | > 75 |
| CCCCc1ccc(Nc2nc(OC)c3ncn(C4CC(O)C(CO)O4)c3n2)cc1 (stereo not given) | 32 | 27.8 | 42 | 36.6 | 71.9 | 38 | 39.8 | 44.5 | 34.6 | 54.3 | 40 | 39.3 | 37.1 | 38.1 |
| CCCc1cc(COC)c(C#N)c(=O)[nH]1 | > 100 | > 100 | > 100 | > 100 | > 100 | > 100 | > 100 | > 100 | > 100 | > 100 | > 100 | > 100 | > 100 | > 100 |
| Nc1nc(NCCCO)cc(=O)[nH]1 | > 100 | > 100 | > 100 | > 100 | > 100 | > 100 | > 100 | > 100 | > 100 | > 100 | > 100 | > 100 | > 100 | > 100 |
| COc1ccc(OC)c2c1C=CC(Br)=CC2 | 0.85 | 0.358 | > 1 | 0.853 | 0.387 | 0.958 | > 1 | > 1 | 0.942 | > 1 | > 1 | > 1 | 0.284 | 0.835 |
| O=C(NNC(=S)NC1CCCCC1)C12CC3CC(CC(C3)C1)C2 | > 100 | > 100 | > 100 | > 100 | > 100 | > 100 | > 100 | > 100 | > 100 | > 100 | > 100 | > 100 | > 100 | > 100 |
| CCOC(=O)c1nc2ccc(C(F)(F)F)cc2nc1NCc1ccc(OC)c(OC)c1 | > 100 | > 100 | > 100 | > 100 | > 100 | > 100 | > 100 | > 100 | > 100 | > 100 | > 100 | > 100 | > 100 | > 100 |
| CCC(C)[C@@H](Nc1c(O)c2c(c(O)c1Cl)C(=O)C=CC2=O)C(=O)OC (stereo not given in full) | > 10 | > 10 | > 10 | > 10 | 7.39 | 7.81 | > 10 | > 10 | 6.59 | 9.1 | 8.83 | > 10 | > 10 | > 10 |
| N[C@@H]1CCN(c2c(F)cc3c(=O)c(C(=O)O)cn4c3c2Oc2cc3c(ccc5ccccc53)cc2-4)C1 | > 100 | – | > 100 | > 100 | > 100 | > 100 | > 100 | > 100 | – | 34.5 | 5.04 | > 100 | > 100 | > 100 |
| CC(=O)NCC1OC2COC(c3ccccc3)OC2C(NC(=O)c2ccccc2)C1OC(=O)c1ccccc1 (stereo not given) | > 100 | > 100 | > 100 | > 100 | – | > 100 | > 100 | > 100 | > 100 | > 100 | > 100 | > 100 | > 100 | > 100 |
